Values quoted from earlier work in patent publication US20100087382A1, “Inhibitors of Hepatitis C NS3 Protease” (BOEHRINGER INGELHEIM INTERNATIONAL GMBH, priority 2007, published 2010).
Read-outs that look alike come from different tables or passages of the source.

Legend:
hepatitis C virus [1] = settings: 28- and 14-day clinical trials, in combination with pegylated interferon with or without ribavirin, during treatment
hepatitis C virus [2] = settings: two day clinical trial, patients infected with hepatitis C virus

| SMILES | viral load in patients (hepatitis C virus [1]) | viral load in patients (hepatitis C virus [2]) |
| --- | --- | --- |
| CCC[C@H](NC(=O)[C@@H]1[C@H]2CCC[C@H]2CN1C(=O)[C@@H](NC(=O)[C@@H](NC(=O)c1cnccn1)C1CCCCC1)C(C)(C)C)C(=O)C(=O)NC1CC1 [VX-950] | rapidly decreased to undetectable levels | – |
| COc1ccc2c(O[C@@H]3C[C@H]4C(=O)N[C@]5(C(=O)O)C[C@H]5/C=C\CCCCC[C@H](NC(=O)OC5CCCC5)C(=O)N4C3)cc(-c3csc(NC(C)C)n3)nc2c1 [BILN 2061] | – | effective in rapidly reducing viral loads |
